Test results as given in patent US10597388B2, “Pyridazinone herbicides” (FMC CORPORATION, priority 2014, dated 2020).
Where two headings read alike, the source gives them in different places.

Key:
Type in all cases: in vivo
corn (Zea mays) = test: Test A greenhouse herbicide test, pre- and postemergence; conditions: Zea mays, 240 h; for Corn plant response rating (crop injury, 0 = no effect, 100 = complete kill) at 125 g/ha: visual rating after approx. 10 d, 0 to 100 scale (0 no effect, 100 complete control)
Summary of the method: (§1)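 Seeds in loam–sand blend received a preemergence directed soil spray; plants at 2–10 cm, one- to two-leaf stage, received postemergence sprays. Compounds in a non-phytotoxic solvent with surfactant. After about 10 d in a greenhouse, injury rated visually versus untreated controls on a 0–100 scale (100 = complete control).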

[1] = test system: foxtail, giant (giant foxtail, Setaria faberii); test: as above; conditions: Setaria faberi, 240 h; for pest or weed control at 1000 g/ha: 1000 g ai/ha; for pest or weed control at 1000 g/ha / pest or weed control at 500 g/ha: 0 to 100 scale; for pest or weed control at 125 g/ha: 125 g ai/ha; for pest or weed control at 500 g/ha: 500 g ai/ha
Summary of the method: as §1

[2] = test system: wheat (Triticum aestivum); test: as above; conditions: Triticum aestivum, 240 h; for plant injury at 1000 g/ha: 1000 g ai/ha; for plant injury at 1000 g/ha / plant injury at 500 g/ha: 0 to 100 scale; for plant injury at 125 g/ha: 125 g ai/ha; for plant injury at 500 g/ha: 500 g ai/ha
Summary of the method: as §1

soybean (Glycine max) = test: Test C greenhouse herbicide test, pre- and postemergence
Summary of the method: (§2)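 Pre- and postemergence greenhouse screen; values are visual control ratings, 0 meaning no effect and 100 complete kill, assigned relative to untreated plants after 13 to 15 d.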

[3] = test system: galium (catchweed bedstraw, Galium aparine); test: as above
Summary of the method: as §2

[4] = test system: ragweed (common ragweed, Ambrosia elatior); test: as above
Summary of the method: as §2

[5] = test system: ryegrass, Italian (Italian ryegrass, Lolium multiflorum); test: as above
Summary of the method: as §2

[6] = test system: galium (catchweed bedstraw, Galium aparine); test: Test A greenhouse herbicide test, postemergence; conditions: Galium, post-emergence, 240 h
Summary of the method: (§3)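 Visual injury score, 0 (no effect) to 100 (complete control), versus untreated controls roughly 10 d after postemergence spray; plants at one- to two-leaf stage, 2 to 10 cm tall, in loam soil and sand, kept in greenhouse.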

[7] = test system: blackgrass (Alopecurus myosuroides); test: Test A greenhouse herbicide test, postemergence; conditions: Alopecurus myosuroides, post-emergence, 240 h
Summary of the method: as §3

[8] = test system: ragweed (common ragweed, Ambrosia elatior); test: Test A greenhouse herbicide test, pre- and postemergence; conditions: Ambrosia artemisiifolia, 240 h; for pest or weed control at 125 g/ha: 125 g ai/ha; for pest or weed control at 500 g/ha: 500 g ai/ha, 0 to 100 scale
Summary of the method: as §1

kochia (Kochia scoparia) = test: as above; conditions: Bassia scoparia, 240 h; for pest or weed control at 125 g/ha: 125 g ai/ha; for pest or weed control at 500 g/ha: 500 g ai/ha, 0 to 100 scale
Summary of the method: as §1

[9] = test system: ryegrass, Italian (Italian ryegrass, Lolium multiflorum); test: as above; conditions: Lolium multiflorum, 240 h; for pest or weed control at 125 g/ha: 125 g ai/ha; for pest or weed control at 500 g/ha: 500 g ai/ha, 0 to 100 scale
Summary of the method: as §1

[10] = post-emergence, Postemergence, 0 is no effect, 100 is complete control, read-out: Foxtail, Giant plant response rating
[11] = pre-emergence, Preemergence, 0 no effect, 100 complete control, read-out: Plant response rating, Foxtail, Giant
[12] = post-emergence, Postemergence, 0 is no effect, 100 is complete control, read-out: Wheat plant response rating
[13] = pre-emergence, Preemergence, 0 no effect, 100 complete control, read-out: Plant response rating, Wheat
[14] = Postemergence, 31 g ai/ha, 0 to 100 scale (0 no effect, 100 complete control)
[15] = Postemergence, 125 g ai/ha, scale 0 to 100, 0 is no effect, 100 is complete control
[16] = Postemergence, 250 g ai/ha, scale 0 to 100, 0 no effect, 100 complete control, 13 to 15 d
[17] = Preemergence, 62 g ai/ha, scale 0 to 100, 0 is no effect, 100 is complete control
[18] = Preemergence, 125 g ai/ha, scale 0 to 100, 0 is no effect, 100 is complete control
[19] = Preemergence, 250 g ai/ha, scale 0 to 100 (0 no effect, 100 complete control)
[20] = postemergence, 62 g ai/ha, scale 0 to 100, 0 no effect, 100 complete control
[21] = Preemergence, 31 g ai/ha, scale 0 to 100, 0 is no effect, 100 is complete control
[22] = post-emergence, Postemergence, 125 g ai/ha
[23] = post-emergence, Postemergence, 500 g ai/ha, 0 to 100 scale, 0 is no effect, 100 is complete control, read-out: Corn plant response rating
[24] = post-emergence, Postemergence, visual rating after approx. 10 d, 0 to 100 scale (0 no effect, 100 complete control), read-out: Plant response rating, Foxtail, Giant
[25] = pre-emergence, Preemergence, 0 to 100 scale where 0 is no effect and 100 is complete control, read-out: Foxtail, Giant plant response rating
[26] = post-emergence, Postemergence, visual rating after approx. 10 d, 0 to 100 scale (0 no effect, 100 complete control), read-out: Plant response rating, Wheat

`Cc1ccc2sc(C)c(-c3c(O)c(C)nn(C)c3=O)c2c1` [Compound 1, 4-(2,5-dimethylbenzo[b]thien-3-yl)-5-hydroxy-2,6-dimethyl-3(2H)-pyridazinone] gave a plant injury at 1000 g/ha (corn (Zea mays); post-emergence, Postemergence, 1000 g ai/ha, 0 to 100 scale, 0 is no effect, 100 is complete control, read-out: Corn plant response rating) of 40%, a Corn plant response rating (crop injury, 0 = no effect, 100 = complete kill) at 1000 g/ha (corn (Zea mays); pre-emergence, Preemergence, 1000 g ai/ha, 0 to 100 scale, 0 no effect, 100 complete control) of 0% and a pest or weed control at 1000 g/ha [1, 10] of 80%. The pest or weed control at 1000 g/ha [1, 11] was 100%, the plant injury at 1000 g/ha [2, 12] was 0% and the plant injury at 1000 g/ha [2, 13] was 0%. For the same compound, the “Soybean plant response rating” value (soybean (Glycine max); [14]) was 0, the “Plant response rating, Soybean” value (soybean (Glycine max); [15]) was 5 and the “Plant response rating, Soybean” value (soybean (Glycine max); [16]) was 5. The “Plant response rating, Soybean” value (soybean (Glycine max); [17]) was 0, the “Plant response rating, Soybean” value (soybean (Glycine max); [18]) was 0 and the “Soybean plant response rating” value (soybean (Glycine max); [19]) was 0. The “Soybean plant response rating” value (soybean (Glycine max); [20]) was 0, the “Galium plant response rating” value [3, 14] was 90 and the “Plant response rating, Galium” value [3, 15] was 95. The “Plant response rating, Galium” value [3, 16] was 95, the “Plant response rating, Galium” value [3, 21] was 90 and the “Plant response rating, Galium” value [3, 17] was 100. The “Plant response rating, Galium” value [3, 18] was 95, the “Galium plant response rating” value [3, 19] was 100 and the “Galium plant response rating” value [3, 20] was 95. For the same compound, the “Ragweed plant response rating” value [4, 14] was 90, the “Plant response rating, Ragweed” value [4, 15] was 95 and the “Plant response rating, Ragweed” value [4, 16] was 95. The “Plant response rating, Ragweed” value [4, 21] was 90, the “Plant response rating, Ragweed” value [4, 17] was 80 and the “Plant response rating, Ragweed” value [4, 18] was 100. The “Ragweed plant response rating” value [4, 19] was 98, the “Ragweed plant response rating” value [4, 20] was 95 and the “Ryegrass, Italian plant response rating” value [5, 14] was 80. The “Plant response rating, Ryegrass, Italian” value [5, 15] was 95, the “Plant response rating, Ryegrass, Italian” value [5, 16] was 98 and the “Plant response rating, Ryegrass, Italian” value [5, 21] was 95. The “Plant response rating, Ryegrass, Italian” value [5, 17] was 100, the “Plant response rating, Ryegrass, Italian” value [5, 18] was 100 and the “Ryegrass, Italian plant response rating” value [5, 19] was 100. For the same compound, the “Ryegrass, Italian plant response rating” value [5, 20] was 90.

`Cc1nn(C)c(=O)c(-c2c(C)oc3c(C)cccc23)c1O` [Compound 9, 4-(2,7-dimethyl-3-benzofuranyl)-5-hydroxy-2,6-dimethyl-3(2H)-pyridazinone] gave a Corn plant response rating (crop injury, 0 = no effect, 100 = complete kill) at 125 g/ha (corn (Zea mays); [22]) of 0%, a plant injury at 500 g/ha (corn (Zea mays); [23]) of 0% and a plant injury at 125 g/ha (corn (Zea mays); pre-emergence, Preemergence, 125 g ai/ha, 0 to 100 scale where 0 is no effect and 100 is complete control, read-out: Corn plant response rating) of 0%. For the same compound, the Corn plant response rating (crop injury, 0 = no effect, 100 = complete kill) at 500 g/ha (corn (Zea mays); pre-emergence, Preemergence, 500 g ai/ha, 0 to 100 scale, 0 no effect, 100 complete control) was 0%, the pest or weed control at 125 g/ha [1, 24] was 10% and the pest or weed control at 500 g/ha [1, 10] was 90%. For the same compound, the pest or weed control at 125 g/ha [1, 25] was 70%, the pest or weed control at 500 g/ha [1, 11] was 100% and the plant injury at 125 g/ha [2, 26] was 0%. For the same compound, the plant injury at 500 g/ha [2, 12] was 0%, the plant injury at 125 g/ha ([2]; pre-emergence, Preemergence, 0 to 100 scale where 0 is no effect and 100 is complete control, read-out: Wheat plant response rating) was 0% and the plant injury at 500 g/ha [2, 13] was 0%.

For `Cc1cc(C)c2oc(C)c(-c3c(O)c(C)nn(C)c3=O)c2c1` [Compound 12, 5-hydroxy-2,6-dimethyl-4-(2,5,7-trimethyl-3-benzofuranyl)-3(2H)-pyridazinone], the pest or weed control at 125 g/ha ([6]; 125 g ai/ha, visual rating after approx. 10 d, 0 to 100 scale (0 no effect, 100 complete control), read-out: Plant response rating, Galium) was 60%, the pest or weed control at 500 g/ha ([6]; 500 g ai/ha, 0 to 100 scale, 0 is no effect, 100 is complete control, read-out: Galium plant response rating) was 90% and the pest or weed control at 125 g/ha ([7]; 125 g ai/ha, visual rating after approx. 10 d, 0 to 100 scale (0 no effect, 100 complete control), read-out: Plant response rating, Blackgrass) was 20%. It also gave a pest or weed control at 500 g/ha ([7]; 500 g ai/ha, 0 to 100 scale, 0 is no effect, 100 is complete control, read-out: Blackgrass plant response rating) of 50%, a pest or weed control at 125 g/ha ([8]; post-emergence, Postemergence, visual rating after approx. 10 d, 0 to 100 scale (0 no effect, 100 complete control), read-out: Plant response rating, Ragweed) of 10% and a pest or weed control at 500 g/ha ([8]; post-emergence, Postemergence, 0 is no effect, 100 is complete control, read-out: Ragweed plant response rating) of 70%. For the same compound, the pest or weed control at 125 g/ha ([8]; pre-emergence, Preemergence, 0 to 100 scale where 0 is no effect and 100 is complete control, read-out: Ragweed plant response rating) was 0%, the pest or weed control at 500 g/ha ([8]; pre-emergence, Preemergence, 0 no effect, 100 complete control, read-out: Plant response rating, Ragweed) was 30% and the pest or weed control at 125 g/ha (kochia (Kochia scoparia); post-emergence, Postemergence, visual rating after approx. 10 d, 0 to 100 scale (0 no effect, 100 complete control), read-out: Plant response rating, Kochia) was 0%. For the same compound, the pest or weed control at 500 g/ha (kochia (Kochia scoparia); post-emergence, Postemergence, 0 is no effect, 100 is complete control, read-out: Kochia plant response rating) was 60%, the pest or weed control at 125 g/ha (kochia (Kochia scoparia); pre-emergence, Preemergence, 0 to 100 scale where 0 is no effect and 100 is complete control, read-out: Kochia plant response rating) was 0% and the pest or weed control at 500 g/ha (kochia (Kochia scoparia); pre-emergence, Preemergence, 0 no effect, 100 complete control, read-out: Plant response rating, Kochia) was 10%. The Corn plant response rating (crop injury, 0 = no effect, 100 = complete kill) at 125 g/ha (corn (Zea mays); [22]) was 0%, the plant injury at 500 g/ha (corn (Zea mays); [23]) was 0% and the pest or weed control at 125 g/ha [1, 24] was 10%. The pest or weed control at 500 g/ha [1, 10] was 70%, the pest or weed control at 125 g/ha [1, 25] was 20% and the pest or weed control at 500 g/ha [1, 11] was 90%. For the same compound, the pest or weed control at 125 g/ha ([9]; post-emergence, Postemergence, visual rating after approx. 10 d, 0 to 100 scale (0 no effect, 100 complete control), read-out: Plant response rating, Ryegrass, Italian) was 60%, the pest or weed control at 500 g/ha ([9]; post-emergence, Postemergence, 0 is no effect, 100 is complete control, read-out: Ryegrass, Italian plant response rating) was 70% and the pest or weed control at 125 g/ha ([9]; pre-emergence, Preemergence, 0 to 100 scale where 0 is no effect and 100 is complete control, read-out: Ryegrass, Italian plant response rating) was 20%. For the same compound, the pest or weed control at 500 g/ha ([9]; pre-emergence, Preemergence, 0 no effect, 100 complete control, read-out: Plant response rating, Ryegrass, Italian) was 50%, the plant injury at 125 g/ha [2, 26] was 0% and the plant injury at 500 g/ha [2, 12] was 0%.
